Patent US10004732B2 (Novartis AG, priority 2014, dated 2018)
pIC50: −log10 of the molar value. Counter-ions that a name gives are not always drawn. Like-named read-outs stand apart in the source and are kept apart here.

Assays:
[1] = molecular target: PI 4-kinase beta (Homo sapiens, UniProt Q9UBF8); assay: Kinase Glo Luminescent Kinase Assay (Kglo), assay D; type: biochemical; settings: read-out: Assay D PI4Kβ IC50
[2] = molecular target: T1, PI 3-kinase delta (Homo sapiens, UniProt O00329); assay: TR-FRET Adapta assay, assay F; settings: read-out: Assay F PI3Kδ IC50
[3] = molecular target: T2, PI 3-kinase alpha (Homo sapiens, UniProt P42336); assay: Cellular assay H1, p-Akt (S473) in Rat-1 cells, Surefire format; type: cell-based; settings: non-asterisked data: version H1 (Surefire format), Rat-1 cells; read-out: Assay H PI3Kα IC50
Target sequence in this assay (P42336 whole entry): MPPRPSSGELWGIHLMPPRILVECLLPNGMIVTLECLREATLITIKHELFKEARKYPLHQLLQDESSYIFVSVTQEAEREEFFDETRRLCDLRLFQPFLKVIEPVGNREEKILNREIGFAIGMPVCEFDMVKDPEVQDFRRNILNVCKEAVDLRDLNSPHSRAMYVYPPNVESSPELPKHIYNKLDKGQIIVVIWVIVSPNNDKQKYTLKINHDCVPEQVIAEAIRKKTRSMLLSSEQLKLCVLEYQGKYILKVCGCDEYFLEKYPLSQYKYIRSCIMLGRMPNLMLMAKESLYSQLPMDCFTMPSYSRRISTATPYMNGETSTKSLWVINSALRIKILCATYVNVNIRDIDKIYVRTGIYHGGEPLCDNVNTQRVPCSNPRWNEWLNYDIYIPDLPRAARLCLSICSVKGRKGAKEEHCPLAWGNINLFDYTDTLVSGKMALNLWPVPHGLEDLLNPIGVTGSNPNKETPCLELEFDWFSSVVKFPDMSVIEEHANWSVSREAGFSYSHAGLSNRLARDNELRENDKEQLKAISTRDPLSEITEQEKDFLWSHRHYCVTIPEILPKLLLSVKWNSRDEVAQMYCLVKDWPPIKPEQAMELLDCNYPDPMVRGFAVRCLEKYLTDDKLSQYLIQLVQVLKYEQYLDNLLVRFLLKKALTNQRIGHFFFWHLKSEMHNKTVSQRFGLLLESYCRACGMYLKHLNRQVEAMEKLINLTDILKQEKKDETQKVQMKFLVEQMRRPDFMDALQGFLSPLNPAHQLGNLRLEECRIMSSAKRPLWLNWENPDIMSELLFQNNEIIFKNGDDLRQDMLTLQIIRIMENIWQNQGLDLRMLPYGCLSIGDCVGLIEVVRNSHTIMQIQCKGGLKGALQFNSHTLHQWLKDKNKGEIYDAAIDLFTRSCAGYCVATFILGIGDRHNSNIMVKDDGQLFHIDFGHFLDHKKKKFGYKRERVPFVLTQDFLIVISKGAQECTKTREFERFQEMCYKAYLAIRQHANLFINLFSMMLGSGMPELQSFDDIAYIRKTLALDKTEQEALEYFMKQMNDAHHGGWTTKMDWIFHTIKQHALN
Target sequence in this assay (Q63787 whole entry partner): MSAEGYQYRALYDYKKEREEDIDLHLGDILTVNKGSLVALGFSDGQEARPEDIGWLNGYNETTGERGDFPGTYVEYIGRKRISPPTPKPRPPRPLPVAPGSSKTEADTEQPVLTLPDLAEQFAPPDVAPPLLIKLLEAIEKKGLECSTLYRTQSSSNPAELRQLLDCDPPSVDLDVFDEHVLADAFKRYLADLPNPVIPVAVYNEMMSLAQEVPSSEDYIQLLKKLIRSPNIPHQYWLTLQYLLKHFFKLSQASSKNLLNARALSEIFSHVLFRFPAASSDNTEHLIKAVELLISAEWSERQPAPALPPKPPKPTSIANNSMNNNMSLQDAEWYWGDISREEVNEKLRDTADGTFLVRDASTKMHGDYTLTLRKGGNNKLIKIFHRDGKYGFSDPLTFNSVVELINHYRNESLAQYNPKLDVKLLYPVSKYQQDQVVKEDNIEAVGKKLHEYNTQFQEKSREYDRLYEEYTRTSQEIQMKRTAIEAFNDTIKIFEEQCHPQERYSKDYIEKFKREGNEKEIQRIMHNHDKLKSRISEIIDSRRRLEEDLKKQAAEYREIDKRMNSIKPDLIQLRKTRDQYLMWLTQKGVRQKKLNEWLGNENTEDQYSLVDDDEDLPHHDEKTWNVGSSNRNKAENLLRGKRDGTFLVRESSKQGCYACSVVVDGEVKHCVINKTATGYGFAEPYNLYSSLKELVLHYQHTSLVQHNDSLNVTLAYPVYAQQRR

[4] = Microsomal clearance assay (M); settings: intrinsic clearance in rat liver microsomes
Protocol: The experiments were performed in 96-well glass plates at 37° C. on an automated Tecan EVO platform. Test compounds at a concentration of 10 mM in pure DMSO were diluted 1:1000 in water to 10 μM. […] Reactions were initiated by the addition of 150 μL of a cofactor solution containing 2 mM NADPH.

[5] = test system: IL-8-induced neutrophil shape change in human whole blood; assay: Whole blood neutrophil shape change assay (L); type: cell-based; settings: IL-8, human whole blood, read-out: Assay L WBSC IC50
[6] = molecular target: T3, PI 3-kinase gamma (Homo sapiens, UniProt P48736); assay: TR-FRET Adapta assay, assay E; type: biochemical; settings: read-out: Assay E PI3Kγ IC50
[7] = molecular target: Vps34 (Homo sapiens, UniProt Q8NEB9); assay: Kinase Glo Luminescent Kinase Assay (Kglo), assay C; type: biochemical; settings: read-out: Assay C VPS34 IC50
[8] = molecular target: T3, PI 3-kinase gamma; assay: Cellular U937 AKT assay K2 (HTRF); type: cell-based; settings: U937 cells, K2 format; read-out: Assay K2 PI3Kγ IC50
Protocol: In assays K1 and K2, the compounds were tested for their ability to inhibit the production of phosphorylated AKT (Protein Kinase B) generated in a PI 3-kinase gamma isoform-dependent process in a U937 human cell line.
Cellular U937 AKT Assay for PI 3-Kinase Gamma (K2)
U937 cells are split every 3-4 days: 5×10^6 cells/flask (175 cm^2) in 40 ml.
Semi-automated preparation of cell lysates: Cells were resuspended in HBSS, seeded (200′000 cells/well/60 μl) into a 384-well plate and incubated in a humidified 37° C., 5% CO2 incubator for 1.5 hours. The compounds were diluted with HBSS and 40 μl were added to the starved cells (except for wells 24 I-P). […] The cells were then incubated for 30 minutes at 37° C. and 5% CO2. Stimulation occurred during 3 minutes by addition of 20 μl MIP1α (final 10 ng/ml, diluted in HBSS) in the incubator. Wells 24 A-H were only stimulated with HBSS.
The stimulation was then stopped by putting the cell plates on ice (filled with cold water). The cells were then centrifuged at 1200 rpm and 4° C. for 3 minutes.
80 μl of supernatant was removed. The cells were again centrifuged at 1200 rpm and 4° C. for 3 minutes. The supernatant was then removed by turning plates upside down and 30 μl of lysis buffer were added. The plate was incubated at room temperature for 30 minutes under shaking. 16 μl were then transferred to a ProxiPlate Plus 384-well. 4 μl of the master mix (each conjugate diluted 1:20 with detection reagent) were added to each well and the plate was kept in the dark at room temperature for 4 hours.

[9] = molecular target: T2, PI 3-kinase alpha; assay: Kinase Glo Luminescent Kinase Assay (Kglo), assay A; type: biochemical; settings: read-out: Assay A PI3Kα IC50
Target sequence in this assay (P42336 whole entry): as the sequence (P42336 whole entry) above

[10] = molecular target: T3, PI 3-kinase gamma; assay: Cellular U937 AKT assay K1 (MSD); type: cell-based; settings: U937 cells, K1 format; read-out: Assay K1 PI3Kγ IC50
[11] = molecular target: T1, PI 3-kinase delta; assay: Cellular assay J1, p-Akt (S473) in Rat-1 cells, Surefire format; type: cell-based; settings: non-asterisked data: version J1 (Surefire format), Rat-1 cells; read-out: Assay J PI3Kδ IC50
[12] = molecular target: T4, PI 3-kinase beta (Homo sapiens, UniProt P42338); assay: Kinase Glo Luminescent Kinase Assay (Kglo), assay B; type: biochemical; settings: read-out: Assay B PI3Kβ IC50
Target sequence in this assay (P42338 whole entry): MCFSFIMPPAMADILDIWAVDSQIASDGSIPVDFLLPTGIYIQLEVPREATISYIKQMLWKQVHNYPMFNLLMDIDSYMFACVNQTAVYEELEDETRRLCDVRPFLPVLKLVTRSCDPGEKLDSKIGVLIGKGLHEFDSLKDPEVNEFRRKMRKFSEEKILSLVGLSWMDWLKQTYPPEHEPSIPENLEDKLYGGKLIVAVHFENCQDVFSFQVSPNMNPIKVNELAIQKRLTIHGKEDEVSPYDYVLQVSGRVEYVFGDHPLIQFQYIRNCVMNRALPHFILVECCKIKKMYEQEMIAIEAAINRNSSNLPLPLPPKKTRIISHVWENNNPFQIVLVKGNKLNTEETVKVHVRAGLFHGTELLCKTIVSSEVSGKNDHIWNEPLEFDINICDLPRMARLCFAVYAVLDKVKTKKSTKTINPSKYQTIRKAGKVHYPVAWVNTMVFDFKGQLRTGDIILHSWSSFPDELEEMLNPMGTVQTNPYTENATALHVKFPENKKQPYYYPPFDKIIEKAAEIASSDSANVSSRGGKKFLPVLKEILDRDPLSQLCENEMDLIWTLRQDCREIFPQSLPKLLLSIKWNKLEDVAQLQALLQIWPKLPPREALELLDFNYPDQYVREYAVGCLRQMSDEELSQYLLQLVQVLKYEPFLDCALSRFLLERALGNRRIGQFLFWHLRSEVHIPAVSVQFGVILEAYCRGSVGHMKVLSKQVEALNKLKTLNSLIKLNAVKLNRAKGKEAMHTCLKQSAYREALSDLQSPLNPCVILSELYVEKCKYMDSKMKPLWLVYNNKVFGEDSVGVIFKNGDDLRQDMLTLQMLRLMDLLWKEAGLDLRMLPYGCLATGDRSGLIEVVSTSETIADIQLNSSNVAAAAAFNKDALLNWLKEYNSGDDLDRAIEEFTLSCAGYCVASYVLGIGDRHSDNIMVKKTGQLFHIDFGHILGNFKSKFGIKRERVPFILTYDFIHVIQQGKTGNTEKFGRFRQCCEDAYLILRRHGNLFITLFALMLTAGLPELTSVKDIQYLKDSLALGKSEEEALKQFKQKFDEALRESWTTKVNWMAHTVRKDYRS
Target sequence in this assay (P27986 461-568 partner): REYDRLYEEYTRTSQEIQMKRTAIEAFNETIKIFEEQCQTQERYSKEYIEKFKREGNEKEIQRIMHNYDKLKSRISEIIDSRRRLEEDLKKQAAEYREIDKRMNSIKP

[13] = molecular target: T4, PI 3-kinase beta; assay: Cellular assay I1, p-Akt (S473) in Rat-1 cells, Surefire format; type: cell-based; settings: non-asterisked data: version I1 (Surefire format), Rat-1 cells; read-out: Assay I PI3Kβ IC50
Target sequence in this assay (P42338 whole entry): as the sequence (P42338 whole entry) above
Target sequence in this assay (Q63787 whole entry partner): as the sequence (Q63787 whole entry partner) above

[14] = molecular target: mTOR (Homo sapiens, UniProt P42345); assay: Lanthascreen kinase binding assay, assay G; settings: read-out: Assay G mTOR IC50
Protocol: Lanthascreen™ Kinase Binding Assay for mTOR (G)
Binding of an inhibitor to the kinase competes for binding with the tracer, resulting in a loss of FRET.
50 nL of compound dilutions were dispensed onto white 384-well small volume polystyrene plate.

Sequence of PI 4-kinase beta (Q9UBF8 whole entry): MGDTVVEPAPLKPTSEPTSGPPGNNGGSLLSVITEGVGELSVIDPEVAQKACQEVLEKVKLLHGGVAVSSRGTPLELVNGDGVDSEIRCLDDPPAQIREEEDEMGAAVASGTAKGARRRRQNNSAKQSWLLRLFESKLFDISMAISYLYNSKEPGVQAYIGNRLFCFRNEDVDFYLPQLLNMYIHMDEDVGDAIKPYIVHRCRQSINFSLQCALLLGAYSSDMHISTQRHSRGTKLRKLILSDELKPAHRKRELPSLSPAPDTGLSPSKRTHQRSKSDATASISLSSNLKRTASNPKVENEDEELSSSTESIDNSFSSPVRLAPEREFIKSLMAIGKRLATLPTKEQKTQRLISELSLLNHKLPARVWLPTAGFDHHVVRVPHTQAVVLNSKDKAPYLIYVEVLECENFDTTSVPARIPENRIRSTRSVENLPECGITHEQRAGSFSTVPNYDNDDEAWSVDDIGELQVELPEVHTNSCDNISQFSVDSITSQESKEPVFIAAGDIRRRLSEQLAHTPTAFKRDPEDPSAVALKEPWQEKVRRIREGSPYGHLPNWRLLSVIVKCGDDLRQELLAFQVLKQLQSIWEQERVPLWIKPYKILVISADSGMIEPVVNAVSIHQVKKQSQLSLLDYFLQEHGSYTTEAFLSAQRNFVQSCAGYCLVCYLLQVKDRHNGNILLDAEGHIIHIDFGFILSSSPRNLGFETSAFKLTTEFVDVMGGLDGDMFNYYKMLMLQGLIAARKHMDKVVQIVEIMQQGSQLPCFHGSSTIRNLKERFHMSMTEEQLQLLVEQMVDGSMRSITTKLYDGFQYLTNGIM
Sequence of Vps34 (Q8NEB9 whole entry, species assumed): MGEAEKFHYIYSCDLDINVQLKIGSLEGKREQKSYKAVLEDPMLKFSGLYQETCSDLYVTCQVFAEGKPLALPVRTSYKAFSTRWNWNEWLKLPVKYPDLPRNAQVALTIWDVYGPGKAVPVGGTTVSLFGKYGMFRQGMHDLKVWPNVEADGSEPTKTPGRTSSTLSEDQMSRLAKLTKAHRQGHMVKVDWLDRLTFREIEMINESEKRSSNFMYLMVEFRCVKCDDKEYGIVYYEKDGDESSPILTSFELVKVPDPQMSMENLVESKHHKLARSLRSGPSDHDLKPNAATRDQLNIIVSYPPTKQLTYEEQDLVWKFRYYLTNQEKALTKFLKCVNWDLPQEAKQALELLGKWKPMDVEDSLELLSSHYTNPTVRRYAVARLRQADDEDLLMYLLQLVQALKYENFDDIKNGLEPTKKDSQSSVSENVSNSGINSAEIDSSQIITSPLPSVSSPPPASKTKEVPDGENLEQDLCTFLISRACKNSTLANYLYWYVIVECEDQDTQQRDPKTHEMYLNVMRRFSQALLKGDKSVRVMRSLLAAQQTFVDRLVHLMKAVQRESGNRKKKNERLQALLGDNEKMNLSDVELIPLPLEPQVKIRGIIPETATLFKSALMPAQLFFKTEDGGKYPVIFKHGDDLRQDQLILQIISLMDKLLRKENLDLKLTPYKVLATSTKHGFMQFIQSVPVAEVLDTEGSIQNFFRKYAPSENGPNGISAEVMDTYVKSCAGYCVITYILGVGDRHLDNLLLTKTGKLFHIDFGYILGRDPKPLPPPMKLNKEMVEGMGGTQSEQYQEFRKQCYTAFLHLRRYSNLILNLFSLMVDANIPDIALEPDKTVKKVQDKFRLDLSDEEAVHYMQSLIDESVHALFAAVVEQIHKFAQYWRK

Compound | pIC50 [1] | pIC50 [2] | pIC50 [3] | Assay M RLM CI(int) [4] [µL/min/mg] | pIC50 ([5]; Homo sapiens, Neutrophil) | pIC50 [6] | pIC50 [7] | pIC50 [8] | pIC50 [9] | pIC50 [10] | pIC50 [11] | pIC50 [12] | pIC50 [13] | pIC50 [14] | pIC50 [5]
Cc1ncc(-c2nc(-c3cc(S(=O)(=O)NCC4(O)COC4)ccc3C)cnc2N)s1 [Example 45.11, 3-(5-Amino-6-(2-methylthiazol-5-yl)pyrazin-2-yl)-N-((3-hydroxyoxetan-3-yl)methyl)-4-methylbenzenesulfonamide] | 5.92 | 6.89 |  | 43 | 7.10 | 8.30 | 5.80 | 7.59 | 7.40 | 7.92 |  | 6.54 |  |  | 
Cc1ccc(S(=O)(=O)NCCN)cc1-c1cnc(N)c(-n2cncn2)n1 [Example 33, N-(2-Amino-ethyl)-3-(5-amino-6-[1,2,4]triazol-1-yl-pyrazin-2-yl)-4-methyl-benzenesulfonamide trifluoroacetic acid salt] | 6.04 | 6.11 |  | 12 | 6.13 | 7.33 | < 5.00 | 6.21 | 6.68 | 5.70 |  | 6.42 |  | 5.82 | 
Cc1ncc(-c2nc(-c3cc(S(=O)(=O)NCC4(CO)COC4)ccc3C)cnc2N)s1 [Example 44, 3-(5-Amino-6-(2-methylthiazol-5-yl)pyrazin-2-yl)-N-((3-(hydroxymethyl)oxetan-3-yl)methyl)-4-methylbenzenesulfonamide] | 5.80 | 6.82 | 5.15 | 37 | 6.38 | 8.30 | 5.64 | 7.23 | 7.22 | 7.66 | < 5.00 | 6.62 | < 5.00 |  | 
Cc1ccc(S(=O)(=O)NCC(C)(C)O)cc1-c1cnc(N)c(-c2cnn(C)c2C)n1 [Example 46, 3-(5-Amino-6-(1,5-dimethyl-1H-pyrazol-4-yl)pyrazin-2-yl)-N-(2-hydroxy-2-methylpropyl)-4-methylbenzenesulfonamide] | < 5.00 | 6.35 |  | 24 | 6.14 | 7.59 | < 5.00 | 6.48 | 6.66 | 6.84 |  | 6.09 |  | < 5.00 | 
Cc1ccc(S(=O)(=O)NCCC(C)(C)O)cc1-c1cnc(N)c(-c2cnn(C)n2)n1 [Example 85, 3-(5-Amino-6-(2-methyl-2H-1,2,3-triazol-4-yl)pyrazin-2-yl)-N-(3-hydroxy-3-methylbutyl)-4-methylbenzenesulfonamide] | < 5.00 | 6.92 |  | 73 | 6.30 | 7.68 | < 5.00 | 7.19 | 7.05 | 7.39 |  | 5.92 |  | 5.10 | 
Cc1ccc(S(=O)(=O)NCC[C@@H](O)C(F)(F)F)cc1-c1cnc(N)c(-c2cn(C)nc2C)n1 (single isomer, unassigned) [Example 52b, (R)-3-(5-Amino-6-(1,3-dimethyl-1H-pyrazol-4-yl)pyrazin-2-yl)-4-methyl-N-(4,4,4-trifluoro-3-hydroxybutyl)benzenesulfonamide or (S)-3-(5-Amino-6-(1,3-dimethyl-1H-pyrazol-4-yl)pyrazin-2-yl)-4-methyl-N-(4,4,4-trifluoro-3-hydroxybutyl)benzenesulfonamide] | 5.38 |  |  | 43 |  | 7.59 | < 5.00 | 6.47 | 6.64 | 7.22 |  |  |  |  | 6.26
Cc1ccc(S(=O)(=O)NOC(C)(C)C)cc1-c1cnc(N)c(-n2cncn2)n1 [Example 112.1, 3-(5-Amino-6-(1H-1,2,4-triazol-1-yl)pyrazin-2-yl)-N-(tert-butoxy)-4-methylbenzenesulfonamide] | 5.74 | 6.68 | 6.10 |  | 5.88 | 7.48 | < 5.00 | 7.20 | 6.54 | 7.04 | 6.42 | 5.77 | 5.83 | 5.22 | 

Now from value to molecule, other results behind:

pIC50 [1] | pIC50 [2] | pIC50 [3] | Assay M RLM CI(int) [4] [µL/min/mg] | pIC50 ([5]; Homo sapiens, Neutrophil) | pIC50 [6] | pIC50 [7] | pIC50 [8] | pIC50 [9] | pIC50 [10] | pIC50 [11] | pIC50 [12] | pIC50 [13] | pIC50 [14] | Compound | pIC50 [5]
< 5.00 | 7.00 | < 5.52 | <3.4 | 5.78 | 7.68 | < 5.00 | 6.38 | 6.23 | 6.12 | < 5.00 | 5.74 | < 5.00 |  | Cc1ccc(S(=O)(=O)NCC2CNCCO2)cc1-c1cnc(N)c(-c2cn(C)nc2C)n1 (stereo not shown) [Example 128.8, 3-(5-amino-6-(1,3-dimethyl-1H-pyrazol-4-yl)pyrazin-2-yl)-4-methyl-N-(morpholin-2-ylmethyl)benzenesulfonamide] | 
5.47 | 5.82 | 5.21 | 26 | 5.58 | 7.22 | < 5.04 | 6.49 | 6.38 |  | 5.14 | 5.21 | 5.04 | < 5.04 | Cc1ccc(S(=O)(=O)N2CC(CO)C2)cc1-c1cnc(N)c(-n2cncn2)n1 [Example 127.45] | 
< 5.00 | 6.52 | < 5.00 | 20 | 5.66 | 6.72 | < 5.00 | 6.71 | 6.72 |  | < 5.00 | 5.11 | < 5.00 |  | Cc1ccc(S(=O)(=O)NC[C@@H]2COCCN2)cc1-c1cnc(N)c(-c2cn(C)nc2C)n1 [Example 128.6, (R)-3-(5-Amino-6-(1,3-dimethyl-1H-pyrazol-4-yl)pyrazin-2-yl)-4-methyl-N-(morpholin-3-ylmethyl)benzenesulfonamide] | 
< 5.00 | 5.41 |  | 72 | 5.01 | 7.00 | < 5.00 | 6.38 | 6.40 |  |  | 5.51 |  | 5.74 | Cc1ccc(S(=O)(=O)N2CC(F)C2)cc1-c1cnc(N)c(-n2cncn2)n1 [Example 127.5] | 
5.10 | 5.82 |  |  | 5.21 | 7.47 | < 5.00 | 6.39 | 6.19 | 6.64 |  | 5.85 |  | < 5.00 | Cc1ccc(S(=O)(=O)NCCC2(O)CCCCC2)cc1-c1cnc(N)c(-n2cncn2)n1 [Example 127.37] | 
5.16 | 6.14 |  | 34 | 5.42 | 7.14 | < 5.04 | 6.26 | 5.89 | 6.15 |  | < 5.04 |  | < 5.04 | Cc1ccc(S(=O)(=O)N2CC(C)(O)C2)cc1-c1cnc(N)c(-n2cncn2)n1 [Example 127.46] | 
5.77 | 6.07 |  | 375 | 5.45 | 7.14 | < 5.00 | 7.08 | 6.49 | 6.07 |  | 6.00 |  | 5.03 | Cc1ccc(S(=O)(=O)N2CCC(F)C2)cc1-c1cnc(N)c(-n2cncn2)n1 (stereo not shown) [Example 127.2] | 
